As usually defined, the pIC50 is −log10 of the IC50, conventionally taken in molar units. Usually pKi stands for −log10 of the Ki, conventionally taken in molar units. One may read the pEC50 as the EC50 on a negative log10 scale, so that one unit is a factor of ten. A high value points to a low EC50.

For experiment [1], the target named is T1, recombinant human mu (MOR) opioid receptor (Homo sapiens, UniProt P35372).
T1 construct: expressed in transfected cells; host or cells: CHO-K1 cell membranes
T1 sequence (P35372 whole entry): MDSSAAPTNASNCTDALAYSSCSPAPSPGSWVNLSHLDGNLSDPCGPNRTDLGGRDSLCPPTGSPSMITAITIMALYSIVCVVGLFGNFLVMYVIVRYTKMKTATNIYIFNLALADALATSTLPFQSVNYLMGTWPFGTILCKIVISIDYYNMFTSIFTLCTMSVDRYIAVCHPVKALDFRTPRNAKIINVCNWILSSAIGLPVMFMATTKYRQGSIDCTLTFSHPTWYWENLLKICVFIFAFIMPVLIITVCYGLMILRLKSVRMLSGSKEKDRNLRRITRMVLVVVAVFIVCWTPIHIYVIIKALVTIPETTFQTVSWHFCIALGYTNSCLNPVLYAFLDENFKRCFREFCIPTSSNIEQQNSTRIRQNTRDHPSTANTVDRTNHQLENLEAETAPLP
The experiment is described as follows: biochemical. Particulars: for inhibition at 10 µM: read-out: Mu receptor % inhibition at single concentration, % inhibition @ 10 μM. In kind it is binding.

The target of experiment [2] is T2, recombinant human kappa (KOR) opioid receptor (Homo sapiens, UniProt P41145).
T2 construct: expressed in transfected cells; host or cells: CHO-K1 cell membranes
T2 sequence (P41145 whole entry): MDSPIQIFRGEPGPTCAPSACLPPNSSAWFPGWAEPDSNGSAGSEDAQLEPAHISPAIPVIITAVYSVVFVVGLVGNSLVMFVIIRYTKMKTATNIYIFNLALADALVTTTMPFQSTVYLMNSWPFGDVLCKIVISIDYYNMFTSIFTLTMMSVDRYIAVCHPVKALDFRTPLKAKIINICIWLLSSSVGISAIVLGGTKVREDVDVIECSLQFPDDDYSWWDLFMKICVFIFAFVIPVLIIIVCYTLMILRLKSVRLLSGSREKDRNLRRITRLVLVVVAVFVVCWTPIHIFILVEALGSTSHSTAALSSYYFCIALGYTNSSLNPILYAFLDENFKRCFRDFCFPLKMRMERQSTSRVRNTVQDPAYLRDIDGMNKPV
Briefly: biochemical. In kind it is binding.

Experiment [3] addresses T3, KOR (kappa opioid receptor) (Homo sapiens, UniProt P41145).
T3 construct: expressed in transfected cells; host or cells: CHO-K1 cells stably expressing KOR
Briefly: cell-based.

pEC50, pIC50, pKi: −log10 of the molar value.

T3 sequence (P41145 whole entry): as above

With `COCCOCCS(=O)(=O)Nc1cccc([C@@H](CN2CCCC2)N(C)C(=O)Cc2ccc(Cl)c(Cl)c2)c1` [compound 20, 2-(3,4-dichlorophenyl)-N-[(1S)-1-[3-({[2-(2-methoxyethoxy)ethyl]sulfonyl}amino)phenyl]-2-(pyrrolidin-1-yl)ethyl]-N-methylacetamide], in experiment [1], the inhibition at 10 µM amounted to 97.1%. In experiment [2], the pIC50 was 9.22 and the pKi was 9.85. In experiment [3], this compound had a pEC50 of 9.82.
On to `COCCOCCOCCOCCOCCOCC(=O)Nc1cccc([C@@H](CN2CCCC2)N(C)C(=O)C(c2ccccc2)c2ccccc2)c1` [compound 12, N-{3-[(1S)-1-[(Diphenylacetyl)(methyl)amino]-2-(pyrrolidin-1-yl)ethyl]phenyl}-2,5,8,11,14,17-hexaoxanonadecan-19-amide], for which, in experiment [1], the pIC50 is 4.27 and the inhibition at 10 µM was found to be 46.5%. Moreover, in experiment [2], the pIC50 is 6.07 and the pKi was 6.71. The pEC50 in experiment [3] is 7.44.
Turning to `CCCCOCCOCCOCCS(=O)(=O)Nc1cccc([C@@H](CN2CCCC2)N(C)C(=O)Cc2ccccn2)c1` [compound 30, N-[(1S)-1-{3-[({2-[2-(2-Butoxyethoxy)ethoxy]ethyl}sulfonyl)amino]phenyl}-2-(pyrrolidin-1-yl)ethyl]-N-methyl-2-(pyridin-2-yl)acetamide], the inhibition at 10 µM in experiment [1] is 85.5%. Besides, in experiment [2], the pIC50 is 6.33 and the negative logarithm of the Ki (pKi) was 7.22. In experiment [3], this compound showed a pEC50 of 7.41.
For `CN(C(=O)Cc1ccc(Cl)c(Cl)c1)[C@H](CN1CC[C@H](OCCO)C1)c1ccccc1` [compound 25, 2-(3,4-Dichlorophenyl)-N-{(1S)-2-[(3S)-3-(2-hydroxyethoxy)pyrrolidin-1-yl]-1-phenylethyl}-N-methylacetamide], in experiment [1], the pIC50 was 5.35 and the inhibition at 10 µM was found to be 57.5%. Further, in experiment [2], the pIC50 is 7.50 and the pKi was 8.38. For the same compound, in experiment [3], the pEC50 is 8.39.
For `COCCOCCOCCOCCOCCN1CCN(C[C@H](c2ccccc2)N(C)C(=O)Cc2ccc(Cl)c(Cl)c2)CC1` [compound 39, (S)—N-(2-(4-(2,5,8,11,14-pentaoxahexadecan-16-yl)piperazin-1-yl)-1-phenylethyl)-2-(3,4-dichlorophenyl)-N-methylacetamide], the inhibition at 10 µM in experiment [1] turned out to be 9.6%. In addition, in experiment [2], the pIC50 is 4.73 and the pKi was 5.37. The compound also had a pEC50 in experiment [3] of 5.71.
Turning to `COCCOCCOCCOCCOCCOCCOCCOC(=O)NC1(C(=O)Nc2cccc([C@@H](CN3CC[C@H](O)C3)N(C)C(=O)Cc3ccc(Cl)c(Cl)c3)c2)CC1` [compound 49, 2,5,8,11,14,17,20-Heptaoxadocosan-22-yl {1-[(3-{(1S)-1-{[(3,4dichlorophenyl)acetyl](methyl)amino}-2-[(3S)-3-hydroxypyrrolidin-1yl]ethyl}phenyl)carbamoyl]cyclopropyl}carbamate], in experiment [1], the inhibition at 10 µM stood at 78.1%. In addition, in experiment [2], the pIC50 was 8.79 and the pKi is 9.43. Further, the pEC50 in experiment [3] was 9.96.
Turning to `COCCOCCOCCOCCOCCO[C@H]1CCN(C[C@H](c2ccccc2)N(C)C(=O)Cc2ccc(Cl)c(Cl)c2)C1` [compound 7, 2-(3,4-Dichlorophenyl)-N-methyl-N-{(1S)-2-[(3S)-3-(2,5,8,11,14-pentaoxahexadecan-16-yloxy)pyrrolidin-1-yl]-1-phenylethyl}acetamide], in experiment [1], the pIC50 was 4.81 and the inhibition at 10 µM was determined as 68.6%. Also, in experiment [2], the pIC50 is 6.53 and the pKi is 7.16. In experiment [3], this compound gave a negative-log EC50 (pEC50) of 8.05.
Take `COCCOCCOCCO[C@H]1CCN(C[C@H](c2ccc(OCCO)cc2)N(C)C(=O)Cc2ccc(Cl)c(Cl)c2)C1` [compound 37, 2-(3,4-Dichlorophenyl)-N-{(1S)-1-[4-(2-hydroxyethoxy)phenyl]-2-[(3S)-3-{2-[2-(2-methoxyethoxy)ethoxy]ethoxy}pyrrolidin-1-yl]ethyl}-N-methylacetamide]: the inhibition at 10 µM in experiment [1] is 57.8%. Further, in experiment [2], the pIC50 was 7.01 and the pKi was 7.65. Moreover, the negative logarithm of the EC50 (pEC50) in experiment [3] is 8.38.
For `CN(C(=O)Cc1ccc(Cl)c(Cl)c1)[C@H](CN1CC[C@H](OCC(=O)O)C1)c1ccccc1` [compound 24, ({(3S)-1-[(2S)-2-{[(3,4-dichlorophenyl)acetyl](methyl)amino}-2-phenylethyl]pyrrolidin-3-yl}oxy)acetic Acid], in experiment [1], the pIC50 was 3.80 and the inhibition at 10 µM is -7.9%. In experiment [2], the pIC50 is 5.44 and the pKi was 6.33. In addition, the pEC50 in experiment [3] is 6.58.
In the case of `CN(C(=O)Cc1ccc(Cl)c(Cl)c1)[C@H](CN1CCCC1)c1cccc(NS(C)(=O)=O)c1` [compound 14, 2-(3,4-dichlorophenyl)-N-methyl-N-[(1S)-1-{3-[(methylsulfonyl)amino]phenyl}-2-(pyrrolidin-1-yl)ethyl]acetamide], in experiment [1], the inhibition at 10 µM is 99.3%. Also, in experiment [2], the pIC50 is 9.47 and the pKi was 10.10. Further, the pEC50 in experiment [3] is 10.30.
For the compound `COCCOCCOCCOCCOCCO[C@H]1CCN(C[C@H](c2ccccc2)N(C)C(=O)C(c2ccccc2)c2ccccc2)C1` [compound 9, N-Methyl-N-{(1S)-2-[(3S)-3-(2,5,8,11,14-pentaoxahexadecan-16-yloxy)pyrrolidin-1-yl]-1-phenylethyl}-2,2-diphenylacetamide], in experiment [1], the inhibition at 10 µM was 36.9%. Besides, in experiment [2], the pIC50 was 5.05 and the pKi is 5.68. Moreover, the pEC50 in experiment [3] was 6.75.
On to `COCCOCCOCCOCCOCCNC(=O)Nc1cccc([C@@H](CN2CCCC2)N(C)C(=O)C(c2ccc(Cl)cc2)c2ccc(Cl)cc2)c1` [compound 16, 2,2-Bis(4-chlorophenyl)-N-methyl-N-[(1S)-1-{3-[(2,5,8,11,14-pentaoxahexadecan-16-ylcarbamoyl)amino]phenyl}-2-(pyrrolidin-1-yl)ethyl]acetamide], for which the inhibition at 10 µM in experiment [1] is 27.1%. Further, in experiment [2], the pIC50 is 7.20 and the pKi was 7.84. In experiment [3], the pEC50 is 7.82.
As for `CN(C(=O)Cc1ccc(Cl)c(Cl)c1)[C@H](CN1CC[C@H](OCCOCCOCCO)C1)c1ccccc1` [compound 27, 2-(3,4-Dichlorophenyl)-N-{(1S)-2-[(3S)-3-{2-[2-(2-hydroxyethoxy)ethoxy]ethoxy}pyrrolidin-1-yl]-1-phenylethyl}-N-methylacetamide], in experiment [1], the pIC50 is 5.04 and the inhibition at 10 µM was found to be 50.4%. For the same compound, in experiment [2], the pIC50 is 6.97 and the pKi was 7.86. In experiment [3], this compound had a pEC50 of 8.36.
On to `COCCOCCOCCOCCOCCOc1ccc(CC(=O)N(C)[C@H](CN2CCCC2)c2ccccc2)cc1` [compound 13, N-Methyl-2-[4-(2,5,8, 11, 14-pentaoxahexadecan-16-yloxy)phenyl]-N-[(1S)-1-phenyl-2-(pyrrolidin-1-yl)ethyl]acetamide], for which the inhibition at 10 µM in experiment [1] is 69.9%. In experiment [2], the pIC50 was 5.88 and the negative logarithm of the Ki (pKi) is 6.52.
In the same order, the values of `COCCOCCOCCOCCOCCO[C@H]1CCN(C[C@H](c2ccccc2)N(C)C(=O)Cc2ccccc2[N+](=O)[O-])C1` [compound 41, N—((S)-2-((S)-3-(2,5,8,11,14-pentaoxahexadecan-16-yloxy)pyrrolidin-1-yl)-1-phenylethyl)-N-methyl-2-(2-nitrophenyl)acetamide] are 20.5%, 5.28 and 5.92.
For the compound `COCCOCCOCCO[C@H]1CCN(C[C@H](c2ccc(C(F)(F)F)cc2)N(C)C(=O)Cc2ccc(Cl)c(Cl)c2)C1` [compound 33, 2-(3,4-Dichlorophenyl)-N-{(1S)-2-[(3S)-3-{2-[2-(2-methoxyethoxy)ethoxy]ethoxy}pyrrolidin-1-yl]-1-[4-(trifluoromethyl)phenyl]ethyl}-N-methylacetamide], in experiment [1], the inhibition at 10 µM was determined as 84.1%. Further, in experiment [2], the pIC50 was 5.91 and the pKi was 6.54.
As for `CCCCOCCOCCOCCS(=O)(=O)Nc1cccc([C@@H](CN2CCCC2)N(C)C(=O)Cc2ccc(Cl)c(Cl)c2)c1` [compound 21, N-[(1S)-1-{3-[({2-[2-(2-butoxyethoxy)ethoxy]ethyl}sulfonyl)amino]phenyl}-2-(pyrrolidin-1-yl)ethyl]-2-(3,4-dichlorophenyl)-N-methylacetamide], in experiment [1], the inhibition at 10 µM was 96.5%. In experiment [2], the pIC50 was 9.74 and the pKi was 10.40. This compound had a pEC50 in experiment [3] of 9.70.
As for `COCCOCCOCCO[C@H]1CCN(C[C@H](c2cccc(NS(C)(=O)=O)c2)N(C)C(=O)Cc2ccc(Cl)c(Cl)c2)C1` [compound 17, 2-(3,4-dichlorophenyl)-N-[(1S)-2-[(3S)-3-{2-[2-(2-methoxyethoxy)ethoxy]ethoxy}pyrrolidin-1-yl]-1-{3-[(methylsulfonyl)amino]phenyl}ethyl]-N-methylacetamide], the inhibition at 10 µM in experiment [1] was determined as 81.9%. For the same compound, in experiment [2], the pIC50 is 5.80 and the pKi was 6.44. This compound also gave a pEC50 in experiment [3] of 7.17.
Turning to `CN(C(=O)Cc1ccc(Cl)c(Cl)c1)[C@H](CN1CC[C@H](OCCOCC(=O)O)C1)c1ccccc1` [compound 28, [2-({(3S)-1-[(2S)-2-{[(3,4-Dichlorophenyl)acetyl](methyl)amino}-2-phenylethyl]pyrrolidin-3-yl}oxy)ethoxy]acetic Acid], in experiment [1], the pIC50 was 4.13 and the inhibition at 10 µM was found to be 4.9%. In experiment [2], the pIC50 was 5.68 and the pKi was 6.56. Further, in experiment [3], the pEC50 is 6.83.
As for `COCCOCCOCCOCCOCCNC(=O)Nc1cccc([C@@H](CN2CCCC2)N(C)C(=O)Cc2ccc(Cl)c(Cl)c2)c1` [compound 15, 2-(3,4-dichlorophenyl)-N-methyl-N-[(1S)-1-{3-[(2,5,8,11,14-pentaoxahexadecan-16-ylcarbamoyl)amino]phenyl}-2-(pyrrolidin-1-yl)ethyl]acetamide], the inhibition at 10 µM in experiment [1] came out at 84.1%. In experiment [2], the pIC50 was 8.63 and the pKi was 9.27. In addition, the pEC50 in experiment [3] is 9.38.

These data come from US11111214B2 (priority 2013, dated 2021).
